pIC50: −log10 of the molar value.
Columns and labels:
H1299 cells [1] = experiment: γ-H2AX immunofluorescence foci assay; format: cell-based, human; settings: 5 μM
Procedure: (§1) For γ-H2AX and 4′,6-diamidino-2-phenylindole (DAPI) staining, cells were fixed in 4% paraformaldehyde for 15 min at room temperature and permeabilized with 0.1% Triton X-100 in PBS for 20 min. The cells were then incubated with 1:200 dilution of anti-phosho-H2AX (Ser139) antibody overnight at 4 °C. AlexaFluor 594-conjugated anti-mouse IgG antibody (Abcam, Cambridge, UK) was used at 1:400 dilution for 1 h at room temperature. The slides were mounted in mounting medium (DAKO, Santa Clara, CA, USA) with DAPI (ThermoFisher Scientific) before imaging. Images were acquired using an LSM880 laser scanning microscope (ZEISS, Jena, Germany). Fluorescent images were captured using the appropriate filters. Images were analyzed using the Image J and ZEN software.

A549 cells [2] = experiment: γ-H2AX immunofluorescence foci assay; format: cell-based, human; settings: 5 μM
Procedure: as §1

ERBB2 = molecular target: T1, ERBB2 (Homo sapiens, UniProt P04626); experiment: Kinase profiling at 10 μM (Eurofins); format: biochemical; settings: read-out: Inhibitory activity
T1 construct: purchased Eurofins Pharma Discovery (KinaseProfiler); IC50 values by Reaction Biology Corp

FGFR1 = molecular target: T2, FGFR1 (Homo sapiens, UniProt P11362); experiment: Kinase profiling at 10 μM (Eurofins); format: biochemical; settings: read-out: Inhibitory activity
T2 construct: purchased Eurofins Pharma Discovery (KinaseProfiler); IC50 values by Reaction Biology Corp

TGFBR1 = molecular target: T3, TGFBR1 (Homo sapiens, UniProt P36897); experiment: Kinase profiling at 10 μM (Eurofins); format: biochemical; settings: read-out: Inhibitory activity
T3 construct: purchased Eurofins Pharma Discovery (KinaseProfiler); IC50 values by Reaction Biology Corp

PKBα = molecular target: T4, PKBα (Homo sapiens, UniProt P31749); experiment: Kinase profiling at 10 μM (Eurofins); format: biochemical; settings: read-out: Inhibitory activity
T4 construct: purchased Eurofins Pharma Discovery (KinaseProfiler); IC50 values by Reaction Biology Corp

FGFR2 = molecular target: T5, FGFR2 (Homo sapiens, UniProt P21802); experiment: Kinase profiling at 10 μM (Eurofins); format: biochemical; settings: read-out: Inhibitory activity
T5 construct: purchased Eurofins Pharma Discovery (KinaseProfiler); IC50 values by Reaction Biology Corp

ROS = molecular target: T6, ROS (Homo sapiens, UniProt P08922); experiment: Kinase profiling at 10 μM (Eurofins); format: biochemical; settings: read-out: Inhibitory activity
T6 construct: purchased Eurofins Pharma Discovery (KinaseProfiler); IC50 values by Reaction Biology Corp

FLT3 = molecular target: T7, FLT3 (Homo sapiens, UniProt P36888); experiment: In vitro kinase assay, IC50 (Reaction Biology Corp.); format: biochemical
T7 construct: purchased Eurofins Pharma Discovery (KinaseProfiler); IC50 values by Reaction Biology Corp

ARK5 = molecular target: T8, ARK5 (Homo sapiens, UniProt O60285); experiment: Kinase profiling at 10 μM (Eurofins); format: biochemical; settings: read-out: Inhibitory activity
T8 construct: purchased Eurofins Pharma Discovery (KinaseProfiler); IC50 values by Reaction Biology Corp

PI3 Kinase (p110a/p85a) = molecular target: T9, PI3 Kinase (p110a/p85a) (Homo sapiens, UniProt P42336); experiment: Kinase profiling at 10 μM (Eurofins); format: biochemical; settings: read-out: Inhibitory activity
T9 construct: purchased Eurofins Pharma Discovery (KinaseProfiler); IC50 values by Reaction Biology Corp

DAPK1 = molecular target: T10, DAPK1 (Homo sapiens, UniProt P53355); experiment: Kinase profiling at 10 μM (Eurofins); format: biochemical; settings: read-out: Inhibitory activity
T10 construct: purchased Eurofins Pharma Discovery (KinaseProfiler); IC50 values by Reaction Biology Corp

H1299 cells [3] = experiment: Annexin V/PI flow cytometric analysis of apoptosis; format: cell-based, human; settings: 10 µM, 48 h
Procedure: (§2) Annexin V assays were performed according to the manufacturer’s protocol (BD Pharmingen, San Diego, CA, USA). Briefly, 10,000 cells were plated into 60-mm plates and treated with varying concentrations of AIU2001 for 48 h. The cells were harvested and incubated with 4 μL allophycocyanin (APC)-conjugated annexin V (20 μg/mL) and 4 μL PI (50 μg/mL) for 15 min. Fluorescence analyses were performed using flow cytometry (CyFlow Cube 6; Sysmexpartec, Goerlitz, Germany). Cells were classified as early apoptotic (annexin V-positive/PI-negative), late apoptotic/necrotic (annexin V-positive/PI-positive), necrotic/dead (annexin V-negative/PI-positive), and live (annexin V-negative/PI-negative). Flow cytometry data was analyzed using FlowJo software (TreeStar Inc., Ashland, OR, USA).

A549 cells [4] = experiment: Annexin V/PI flow cytometric analysis of apoptosis; format: cell-based, human; settings: 10 µM, 48 h
Procedure: as §2

PDGFRα = molecular target: T11, PDGFRα (Homo sapiens, UniProt P16234); experiment: Kinase profiling at 10 μM (Eurofins); format: biochemical; settings: read-out: Inhibitory activity
T11 construct: purchased Eurofins Pharma Discovery (KinaseProfiler); IC50 values by Reaction Biology Corp

c-KIT = molecular target: T12, c-KIT (Homo sapiens, UniProt P10721); experiment: Kinase profiling at 10 μM (Eurofins); format: biochemical; settings: read-out: Inhibitory activity
T12 construct: purchased Eurofins Pharma Discovery (KinaseProfiler); IC50 values by Reaction Biology Corp

CHK2 = molecular target: T13, CHK2 (Homo sapiens, UniProt O96017); experiment: Kinase profiling at 10 μM (Eurofins); format: biochemical; settings: read-out: Inhibitory activity
T13 construct: purchased Eurofins Pharma Discovery (KinaseProfiler); IC50 values by Reaction Biology Corp

CDK2/cyclinA = molecular target: T14, CDK2/cyclinA (Homo sapiens, UniProt P24941); experiment: Kinase profiling at 10 μM (Eurofins); format: biochemical; settings: read-out: Inhibitory activity
T14 construct: purchased Eurofins Pharma Discovery (KinaseProfiler); IC50 values by Reaction Biology Corp

FLT3(D835Y) = FLT3(D835Y) (Homo sapiens, UniProt P36888, D835Y); experiment: In vitro kinase assay, IC50 (Reaction Biology Corp.); format: biochemical; set-up: purchased Reaction Biology Corp. (Malvern, PA, USA)
H1299 cells [5] = experiment: MTT cell viability assay, single drugs and combinations, CI scores; format: cell-based, human
Procedure: (§3) Cell viability was assessed using the MTT colorimetric assay. Cells (1 × 10^3 cells/well) were seeded into 96-well plates and treated with the various concentrations of each compound or combination of two compounds. After five days of treatment, 10 μL MTT (0.5 mg/mL) was added, and further incubated for 3 h. After removal of the supernatant, the resultant pellet was dissolved in DMSO. The absorbance of the resultant formazan was measured at 540 nm using a plate reader (Multiskan EX; ThermoLabsystems, Waltham, MA, USA).
(§4) CI scores were calculated using the CompuSyn software by Chou (CompuSyn Inc., Paramus, NJ) based on cell viability after treatment with single- and paired-drug concentrations. The CI equation for two drugs was used: CI=(D)A/(Dx)A+(D)B/(Dx)B where (Dx)A is the concentration of drug A alone that inhibits x%, (Dx)B is the concentration of drug B alone that inhibits x%, (D)A or (D)B is the portion of drug A or drug B in the combination (D)A + (D)B that inhibits x%.

A549 cells [6] = experiment: as above; format: cell-based, human
Procedure: as §3, §4

T8 sequence (O60285 whole entry): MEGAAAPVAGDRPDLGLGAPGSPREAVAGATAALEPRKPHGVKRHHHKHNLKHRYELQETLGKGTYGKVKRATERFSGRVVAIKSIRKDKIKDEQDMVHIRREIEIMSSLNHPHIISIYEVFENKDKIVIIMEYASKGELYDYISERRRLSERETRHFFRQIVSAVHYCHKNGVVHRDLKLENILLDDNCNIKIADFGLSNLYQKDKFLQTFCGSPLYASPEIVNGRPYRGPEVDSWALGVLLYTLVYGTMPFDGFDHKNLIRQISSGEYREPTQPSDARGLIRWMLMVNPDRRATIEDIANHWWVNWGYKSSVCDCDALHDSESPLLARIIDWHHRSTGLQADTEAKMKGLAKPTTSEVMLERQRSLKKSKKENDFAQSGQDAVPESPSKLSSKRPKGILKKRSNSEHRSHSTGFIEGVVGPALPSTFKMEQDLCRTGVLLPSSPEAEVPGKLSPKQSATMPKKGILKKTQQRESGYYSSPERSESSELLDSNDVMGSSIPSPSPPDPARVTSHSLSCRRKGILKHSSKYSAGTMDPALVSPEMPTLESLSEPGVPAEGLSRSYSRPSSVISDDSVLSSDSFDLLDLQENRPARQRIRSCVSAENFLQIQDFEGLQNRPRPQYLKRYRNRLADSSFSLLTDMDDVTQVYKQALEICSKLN
T6 sequence (P08922 28-2347): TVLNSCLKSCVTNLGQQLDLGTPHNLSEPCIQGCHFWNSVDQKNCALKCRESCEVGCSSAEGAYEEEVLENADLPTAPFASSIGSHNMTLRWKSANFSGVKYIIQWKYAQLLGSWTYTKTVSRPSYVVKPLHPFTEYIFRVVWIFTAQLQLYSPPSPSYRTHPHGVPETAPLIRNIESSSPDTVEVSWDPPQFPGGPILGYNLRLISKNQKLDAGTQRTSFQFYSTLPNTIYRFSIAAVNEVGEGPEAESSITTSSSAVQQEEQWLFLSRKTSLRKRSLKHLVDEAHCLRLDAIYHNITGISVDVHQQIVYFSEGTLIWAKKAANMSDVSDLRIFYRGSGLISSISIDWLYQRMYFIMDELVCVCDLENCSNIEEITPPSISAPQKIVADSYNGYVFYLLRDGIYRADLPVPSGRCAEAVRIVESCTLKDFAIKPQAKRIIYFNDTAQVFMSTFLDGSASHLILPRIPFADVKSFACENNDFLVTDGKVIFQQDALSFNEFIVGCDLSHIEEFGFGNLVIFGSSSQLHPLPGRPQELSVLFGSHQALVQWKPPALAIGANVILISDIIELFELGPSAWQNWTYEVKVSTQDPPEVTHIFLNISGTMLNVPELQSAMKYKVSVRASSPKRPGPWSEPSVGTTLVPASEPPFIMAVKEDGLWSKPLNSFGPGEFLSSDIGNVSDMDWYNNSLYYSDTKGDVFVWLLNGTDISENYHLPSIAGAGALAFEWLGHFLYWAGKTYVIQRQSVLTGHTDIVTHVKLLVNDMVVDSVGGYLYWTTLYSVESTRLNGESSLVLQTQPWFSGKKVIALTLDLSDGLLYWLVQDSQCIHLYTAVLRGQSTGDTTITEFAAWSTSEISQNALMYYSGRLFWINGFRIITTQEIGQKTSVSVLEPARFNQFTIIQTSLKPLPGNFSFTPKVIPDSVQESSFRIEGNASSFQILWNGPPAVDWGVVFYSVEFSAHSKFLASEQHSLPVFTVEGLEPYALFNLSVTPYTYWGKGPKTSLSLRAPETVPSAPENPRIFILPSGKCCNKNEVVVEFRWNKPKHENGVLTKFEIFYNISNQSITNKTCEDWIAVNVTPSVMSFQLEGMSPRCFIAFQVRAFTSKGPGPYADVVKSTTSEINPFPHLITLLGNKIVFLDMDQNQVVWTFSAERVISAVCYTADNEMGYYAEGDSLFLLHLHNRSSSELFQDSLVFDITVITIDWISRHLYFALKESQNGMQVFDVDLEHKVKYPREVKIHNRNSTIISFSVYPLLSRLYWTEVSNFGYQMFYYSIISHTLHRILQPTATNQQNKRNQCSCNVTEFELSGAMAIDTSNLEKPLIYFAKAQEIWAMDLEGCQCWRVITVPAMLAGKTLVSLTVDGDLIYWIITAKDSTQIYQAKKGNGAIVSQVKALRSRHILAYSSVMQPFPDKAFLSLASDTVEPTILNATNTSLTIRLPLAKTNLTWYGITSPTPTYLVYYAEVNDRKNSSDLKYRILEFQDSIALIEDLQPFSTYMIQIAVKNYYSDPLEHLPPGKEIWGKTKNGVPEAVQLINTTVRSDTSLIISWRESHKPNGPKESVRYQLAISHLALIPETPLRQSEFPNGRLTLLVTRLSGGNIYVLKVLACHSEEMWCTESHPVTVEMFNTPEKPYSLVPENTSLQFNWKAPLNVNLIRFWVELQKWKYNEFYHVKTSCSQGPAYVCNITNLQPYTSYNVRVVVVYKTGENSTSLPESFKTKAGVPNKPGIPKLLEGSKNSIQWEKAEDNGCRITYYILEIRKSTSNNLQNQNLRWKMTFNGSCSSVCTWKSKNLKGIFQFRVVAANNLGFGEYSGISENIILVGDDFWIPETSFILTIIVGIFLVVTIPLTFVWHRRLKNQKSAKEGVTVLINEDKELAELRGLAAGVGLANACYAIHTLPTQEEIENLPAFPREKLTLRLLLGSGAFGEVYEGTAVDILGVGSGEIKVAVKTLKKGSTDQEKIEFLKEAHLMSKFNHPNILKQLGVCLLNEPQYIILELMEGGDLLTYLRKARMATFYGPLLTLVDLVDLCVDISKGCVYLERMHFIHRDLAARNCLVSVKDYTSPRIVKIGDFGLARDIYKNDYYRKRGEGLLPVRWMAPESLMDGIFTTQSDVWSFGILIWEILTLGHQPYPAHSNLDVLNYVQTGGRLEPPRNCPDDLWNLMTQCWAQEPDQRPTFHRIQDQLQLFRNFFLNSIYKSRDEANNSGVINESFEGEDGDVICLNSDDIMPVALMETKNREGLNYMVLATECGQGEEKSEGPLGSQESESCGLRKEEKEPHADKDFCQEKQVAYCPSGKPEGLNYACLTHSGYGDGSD
T5 sequence (P21802 22-821): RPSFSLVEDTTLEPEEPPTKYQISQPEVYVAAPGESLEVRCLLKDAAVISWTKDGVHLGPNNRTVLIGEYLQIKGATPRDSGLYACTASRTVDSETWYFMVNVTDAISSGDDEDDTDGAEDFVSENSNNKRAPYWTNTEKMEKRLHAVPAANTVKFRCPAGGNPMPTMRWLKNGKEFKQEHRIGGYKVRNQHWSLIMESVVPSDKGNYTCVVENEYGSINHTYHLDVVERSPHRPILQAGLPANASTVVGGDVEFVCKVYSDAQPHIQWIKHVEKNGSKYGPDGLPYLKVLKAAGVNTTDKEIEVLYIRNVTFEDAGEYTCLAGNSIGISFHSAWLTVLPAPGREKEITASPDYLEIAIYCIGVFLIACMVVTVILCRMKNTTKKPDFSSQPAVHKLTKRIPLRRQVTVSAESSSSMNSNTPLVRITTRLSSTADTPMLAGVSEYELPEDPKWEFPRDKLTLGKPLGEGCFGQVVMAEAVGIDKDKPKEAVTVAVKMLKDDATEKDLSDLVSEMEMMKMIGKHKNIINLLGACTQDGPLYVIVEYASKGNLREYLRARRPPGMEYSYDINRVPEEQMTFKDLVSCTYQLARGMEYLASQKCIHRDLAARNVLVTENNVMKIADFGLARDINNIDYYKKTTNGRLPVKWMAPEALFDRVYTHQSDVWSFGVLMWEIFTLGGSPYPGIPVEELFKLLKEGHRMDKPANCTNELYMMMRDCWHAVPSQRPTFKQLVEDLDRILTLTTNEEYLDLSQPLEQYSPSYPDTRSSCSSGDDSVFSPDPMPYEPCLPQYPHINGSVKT
T1 sequence (P04626 23-1255): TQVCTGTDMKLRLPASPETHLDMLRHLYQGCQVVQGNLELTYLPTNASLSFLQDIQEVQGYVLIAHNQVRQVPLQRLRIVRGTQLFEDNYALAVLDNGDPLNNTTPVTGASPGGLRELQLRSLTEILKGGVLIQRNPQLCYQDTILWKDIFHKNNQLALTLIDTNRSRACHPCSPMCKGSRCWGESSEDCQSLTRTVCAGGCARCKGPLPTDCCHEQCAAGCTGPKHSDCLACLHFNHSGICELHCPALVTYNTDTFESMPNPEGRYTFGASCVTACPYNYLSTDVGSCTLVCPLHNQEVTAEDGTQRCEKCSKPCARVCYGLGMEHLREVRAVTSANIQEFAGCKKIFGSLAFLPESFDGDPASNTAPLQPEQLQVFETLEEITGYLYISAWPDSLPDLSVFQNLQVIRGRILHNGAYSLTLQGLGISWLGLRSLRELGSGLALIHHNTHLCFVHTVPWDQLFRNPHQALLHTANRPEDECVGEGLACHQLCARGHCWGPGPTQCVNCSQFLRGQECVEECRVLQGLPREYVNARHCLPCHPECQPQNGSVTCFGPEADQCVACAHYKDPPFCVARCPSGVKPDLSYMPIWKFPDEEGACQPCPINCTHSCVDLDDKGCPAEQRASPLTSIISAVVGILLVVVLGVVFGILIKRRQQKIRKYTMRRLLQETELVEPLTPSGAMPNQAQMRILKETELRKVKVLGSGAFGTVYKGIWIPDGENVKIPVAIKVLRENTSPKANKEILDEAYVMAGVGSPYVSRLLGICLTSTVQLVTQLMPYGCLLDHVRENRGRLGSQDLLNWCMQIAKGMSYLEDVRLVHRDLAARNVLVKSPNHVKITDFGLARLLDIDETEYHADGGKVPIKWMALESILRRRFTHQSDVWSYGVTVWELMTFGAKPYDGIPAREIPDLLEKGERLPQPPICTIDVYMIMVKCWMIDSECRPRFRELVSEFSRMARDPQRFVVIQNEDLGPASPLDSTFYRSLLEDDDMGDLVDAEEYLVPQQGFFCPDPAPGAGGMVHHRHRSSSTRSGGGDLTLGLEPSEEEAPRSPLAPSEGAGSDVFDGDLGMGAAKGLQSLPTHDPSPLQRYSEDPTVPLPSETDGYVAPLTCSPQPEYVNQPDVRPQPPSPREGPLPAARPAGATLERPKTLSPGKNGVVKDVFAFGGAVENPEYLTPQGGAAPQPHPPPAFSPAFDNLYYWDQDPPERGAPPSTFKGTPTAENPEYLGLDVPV

For `Brc1ccc(-c2cnc(Nc3cccc4ccccc34)o2)cc1` [AIU2001, 5-(4-bromophenyl)-N-(naphthalen-1-yl) oxazol-2-amine], the γ-H2AX foci (H1299 cells [1]) was “high levels of γ-H2AX foci”, the γ-H2AX foci (A549 cells [2]) was “high levels of γ-H2AX foci” and the inhibition at 10 µM (ERBB2) was 0%. The inhibition at 10 µM (FGFR1) was 1%, the inhibition at 10 µM (TGFBR1) was 12% and the inhibition at 10 µM (PKBα) was 24%. The inhibition at 10 µM (FGFR2) was 1%, the inhibition at 10 µM (ROS) was 2% and the pIC50 (FLT3) was 6.69. It also gave an inhibition at 10 µM (ARK5) of 75%, an inhibition at 10 µM (PI3 Kinase (p110a/p85a)) of 7% and an inhibition at 10 µM (DAPK1) of 12%. The “Increase in early and late apoptotic cells” value (H1299 cells [3]) was 6.7 fold, the “Increase in early and late apoptotic cells” value (A549 cells [4]) was 4.2 fold and the inhibition at 10 µM (PDGFRα) was 48%. It also gave an inhibition at 10 µM (c-KIT) of no less than 75%, an inhibition at 10 µM (CHK2) of 14% and an inhibition at 10 µM (CDK2/cyclinA) of 39%. The pIC50 (FLT3(D835Y)) was 6.97, the viability at 0.16 µM (H1299 cells [5]; Homo sapiens, NCI-H1299, 120 h, Olaparib 0, AIU2001 0.16 μM, 5 days, panel A, read-out: Relative viability) was 101% and the viability at 0.32 µM (H1299 cells [5]; Homo sapiens, NCI-H1299, 120 h, Olaparib 0, AIU2001 0.32 μM, 5 days, panel A, read-out: Relative viability) was 93.7%. It also gave a viability at 0.63 µM (H1299 cells [5]; Homo sapiens, NCI-H1299, 120 h, Olaparib 0, AIU2001 0.63 μM, 5 days, panel A, read-out: Relative viability) of 94.2%, a viability at 1.25 µM (H1299 cells [5]; Homo sapiens, NCI-H1299, 120 h, Olaparib 0, AIU2001 1.25 μM, 5 days, panel A, read-out: Relative viability) of 90% and a viability at 2.5 µM (H1299 cells [5]; Homo sapiens, NCI-H1299, 120 h, Olaparib 0, AIU2001 2.50 μM, 5 days, panel A, read-out: Relative viability) of 65.5%. For the same molecule, the viability at 5 µM (H1299 cells [5]; Homo sapiens, NCI-H1299, 120 h, Olaparib 0, AIU2001 5.00 μM, 5 days, panel A, read-out: Relative viability) was 26.2%, the viability at 10 µM (H1299 cells [5]; Homo sapiens, NCI-H1299, 120 h, Olaparib 0, AIU2001 10.00 μM, 5 days, panel A, read-out: Relative viability) was 15.4% and the “Growth inhibition” value (H1299 cells [5]; MTT, five days) was “significantly inhibited the growth”. The viability at 0.16 µM (A549 cells [6]; Homo sapiens, 120 h, Olaparib 0, AIU2001 0.16 μM, 5 days, panel A, read-out: Relative viability) was 95.1%, the viability at 0.32 µM (A549 cells [6]; Homo sapiens, 120 h, Olaparib 0, AIU2001 0.32 μM, 5 days, panel A, read-out: Relative viability) was 95% and the viability at 0.63 µM (A549 cells [6]; Homo sapiens, 120 h, Olaparib 0, AIU2001 0.63 μM, 5 days, panel A, read-out: Relative viability) was 89%. It also gave a viability at 1.25 µM (A549 cells [6]; Homo sapiens, 120 h, Olaparib 0, AIU2001 1.25 μM, 5 days, panel A, read-out: Relative viability) of 86.5%, a viability at 2.5 µM (A549 cells [6]; Homo sapiens, 120 h, Olaparib 0, AIU2001 2.50 μM, 5 days, panel A, read-out: Relative viability) of 53.6% and a viability at 5 µM (A549 cells [6]; Homo sapiens, 120 h, Olaparib 0, AIU2001 5.00 μM, 5 days, panel A, read-out: Relative viability) of 31.6%. The viability at 10 µM (A549 cells [6]; Homo sapiens, 120 h, Olaparib 0, AIU2001 10.00 μM, 5 days, panel A, read-out: Relative viability) was 21.1% and the “Growth inhibition” value (A549 cells [6]; MTT, five days) was “significantly inhibited the growth”.

Source: PMC6801739, “Antitumor Activity of a Novel Tyrosine Kinase Inhibitor AIU2001 Due to Abrogation of the DNA Damage Repair in Non-Small Cell Lung Cancer Cells” (International Journal of Molecular Sciences, 2019)
